Data: patent US20260274814A1, “THIENYL COMPOUNDS FOR THE TREATMENT OF A CENTRAL NERVOUS SYSTEM DISEASE OR DISORDER” (Coreterra Therapeutics, Inc., priority 2023, published 2026)
Counter-ions that a name gives are not always drawn. Like-named read-outs stand apart in the source and are kept apart here.

Tested on: mice
Test: Neuropharmacological Assay (SmartCube): automated behavioral signature of compound-treated mice compared with a database of reference drug classes
Assay type: in vivo
Settings: for minimal effective dose: Mus musculus, ip, i.p., that dose is shown; for AD / AG / AN / AP / AX / CE / HL / MS / PS / SH / UK: 3.0 mg/kg i.p., 15 min before test
Procedure, shortened: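 i.p. dosing 15 min pre-test (NMP/PEG/propylene glycol vehicle); 3 doses, 3.0 mg/kg reported. Output = class-match probability per behavioural effect. Potency runs 0.3, 1, 3, 10 mpk (range adjusted as needed); MED = dose with ≥45% total activity.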

[1] = dose having 45% or more total activity in SmartCube, if only one dose was tested, read-out: MED (minimal effective dose)
[2] = probability that activity matches this class of agents
[3] = minimal effective dose: dose having 45% or more total activity in SmartCube, if only one dose tested, read-out: MED

SMILES	minimal effective dose [1]	AD [2]	AG [2]	AN [2]	AP [2]	AX [2]	CE [2]	HL [2]	MS [2]	PS [2]	SH [2]	UK [2]	minimal effective dose [3]	AD (SmartCube class probability)	AG (SmartCube class probability)	AN (SmartCube class probability)	AP (SmartCube class probability)	AX (SmartCube class probability)	CE (SmartCube class probability)	HL (SmartCube class probability)	further results
CNC1CCc2c(sc(Cl)c2C)C1 (stereo not drawn) [Compound 92, 2-chloro-N, 3-dimethyl-4,5,6,7-tetrahydrobenzothiophen-6-amine hydrochloride]	3 mg/kg	++++ (≥74%)	ND (^ <4%)	ND (^ <4%)	ND (^ <4%)	ND (^ <4%)	ND (^ <4%)	ND (^ <4%)	ND (^ <4%)	ND (^ <4%)	ND (^ <4%)	ND (^ <4%)	–	–	–	–	–	–	–	–	–
CNC1CCc2csc(C#N)c2C1 (stereo not drawn) [Compound 93, 6-(methylamino)-4,5,6,7-tetrahydro-2-benzothiophene-1-carbonitrile hydrochloride]	0.1 mg/kg	ND (^ <4%)	ND (^ <4%)	ND (^ <4%)	++++ (≥74%)	ND (^ <4%)	ND (^ <4%)	ND (^ <4%)	ND (^ <4%)	ND (^ <4%)	ND (^ <4%)	ND (^ <4%)	–	–	–	–	–	–	–	–	–
CNC1CCc2c(Cl)csc2C1 (stereo not drawn) [Compound 94, 3-chloro-N-methyl-4,5,6,7-tetrahydrobenzothiophen-6-amine hydrochloride]	3 mg/kg	ND (^ <4%)	ND (^ <4%)	ND (^ <4%)	++++ (≥74%)	ND (^ <4%)	ND (^ <4%)	ND (^ <4%)	ND (^ <4%)	ND (^ <4%)	ND (^ <4%)	ND (^ <4%)	–	–	–	–	–	–	–	–	–
CNC1CCc2csc(C3CC3)c2C1 (stereo not drawn) [Compound 95, 3-cyclopropyl-N-methyl-4,5,6,7-tetrahydro-2-benzothiophen-5-amine hydrochloride]	1 mg/kg	+++ (≥49%)	ND (^ <4%)	ND (^ <4%)	++ (≥24%)	ND (^ <4%)	ND (^ <4%)	ND (^ <4%)	ND (^ <4%)	ND (^ <4%)	ND (^ <4%)	ND (^ <4%)	–	–	–	–	–	–	–	–	–
CNC1CCc2cc(Cl)sc2C1 (stereo not drawn) [Compound 96, 2-chloro-N-methyl-4,5,6,7-tetrahydrobenzothiophen-6-amine hydrochloride]	3 mg/kg	ND (^ <4%)	ND (^ <4%)	ND (^ <4%)	+++ (≥49%)	ND (^ <4%)	ND (^ <4%)	ND (^ <4%)	ND (^ <4%)	ND (^ <4%)	ND (^ <4%)	ND (^ <4%)	–	–	–	–	–	–	–	–	–
CNC1CCc2sc(Cl)cc2C1 (stereo not drawn) [Compound 97, 2-chloro-N-methyl-4,5,6,7-tetrahydrobenzothiophen-5-amine hydrochloride]	1 mg/kg	++++ (≥74%)	ND (^ <4%)	ND (^ <4%)	ND (^ <4%)	ND (^ <4%)	ND (^ <4%)	ND (^ <4%)	ND (^ <4%)	ND (^ <4%)	ND (^ <4%)	ND (^ <4%)	–	–	–	–	–	–	–	–	–
CNC1CCc2c(F)sc(C)c2C1 (stereo not drawn) [Compound 100, 1-fluoro-N, 3-dimethyl-4,5,6,7-tetrahydro-2-benzothiophen-5-amine hydrochloride]	1 mg/kg	ND (^ <4%)	ND (^ <4%)	ND (^ <4%)	++++ (≥74%)	ND (^ <4%)	ND (^ <4%)	ND (^ <4%)	ND (^ <4%)	ND (^ <4%)	ND (^ <4%)	ND (^ <4%)	–	–	–	–	–	–	–	–	–
CNC1CCc2scc(Br)c2C1 (stereo not drawn) [Compound 108, 3-bromo-N-methyl-4,5,6,7-tetrahydrobenzothiophen-5-amine hydrochloride]	< 3 mg/kg	ND (^ <4%)	ND (^ <4%)	ND (^ <4%)	++++ (≥74%)	ND (^ <4%)	ND (^ <4%)	ND (^ <4%)	ND (^ <4%)	ND (^ <4%)	ND (^ <4%)	ND (^ <4%)	–	–	–	–	–	–	–	–	–
CNC1(C)CCc2c(F)csc2C1 (stereo not drawn) [Compound 109, 3-fluoro-N, 6-dimethyl-5,7-dihydro-4H-benzothiophen-6-amine hydrochloride]	< 3 mg/kg	++++ (≥74%)	ND (^ <4%)	ND (^ <4%)	ND (^ <4%)	ND (^ <4%)	ND (^ <4%)	ND (^ <4%)	ND (^ <4%)	ND (^ <4%)	ND (^ <4%)	ND (^ <4%)	–	–	–	–	–	–	–	–	–
CNC1COc2cc(F)sc2C1 (stereo not drawn) [Compound 130, 2-fluoro-N-methyl-6,7-dihydro-5H-thieno[3,2-b]pyran-6-amine hydrochloride]	< 3 mg/kg	ND (^ <4%)	ND (^ <4%)	ND (^ <4%)	++++ (≥74%)	ND (^ <4%)	ND (^ <4%)	ND (^ <4%)	ND (^ <4%)	ND (^ <4%)	ND (^ <4%)	ND (^ <4%)	–	–	–	–	–	–	–	–	–
CNC1COc2csc(C#N)c2C1 (stereo not drawn) [Compound 139, 3-(methylamino)-3,4-dihydro-2H-thieno[3,4-b]pyran-5-carbonitrile hydrochloride]	0.3 mg/kg	++ (≥24%)	ND (^ <4%)	ND (^ <4%)	ND (^ <4%)	ND (^ <4%)	ND (^ <4%)	ND (^ <4%)	ND (^ <4%)	ND (^ <4%)	ND (^ <4%)	++ (≥24%)	–	–	–	–	–	–	–	–	–
CNC1CCc2scc(C(F)(F)F)c2C1 (stereo not drawn) [Compound 140, N-methyl-3-(trifluoromethyl)-4,5,6,7-tetrahydrobenzothiophen-5-amine hydrochloride]	–	–	–	–	–	–	–	–	–	–	–	–	3 mg/kg	ND (^ <4%)	ND (^ <4%)	ND (^ <4%)	+ (≥4%)	ND (^ <4%)	ND (^ <4%)	ND (^ <4%)	MS (SmartCube class probability): ND (^ <4%); PS (SmartCube class probability): ND (^ <4%); SH (SmartCube class probability): ND (^ <4%); UK (SmartCube class probability): +++ (≥49%)
CNC1(C)CCc2csc(C(F)(F)F)c2C1 (stereo not drawn) [Compound 141, N, 5-dimethyl-3-(trifluoromethyl)-6,7-dihydro-4H-2-benzothiophen-5-amine hydrochloride]	–	–	–	–	–	–	–	–	–	–	–	–	3 mg/kg	+ (≥4%)	ND (^ <4%)	ND (^ <4%)	ND (^ <4%)	+++ (≥49%)	ND (^ <4%)	ND (^ <4%)	MS (SmartCube class probability): ND (^ <4%); PS (SmartCube class probability): ND (^ <4%); SH (SmartCube class probability): ND (^ <4%); UK (SmartCube class probability): ND (^ <4%)
CNC1CCc2sc(F)c(C)c2C1 (stereo not drawn) [Compound 142, 2-fluoro-N, 3-dimethyl-4,5,6,7-tetrahydrobenzothiophen-5-amine hydrochloride]	–	–	–	–	–	–	–	–	–	–	–	–	1 mg/kg	+ (≥4%)	ND (^ <4%)	++ (≥24%)	+ (≥4%)	ND (^ <4%)	ND (^ <4%)	ND (^ <4%)	MS (SmartCube class probability): ND (^ <4%); PS (SmartCube class probability): + (≥4%); SH (SmartCube class probability): ND (^ <4%); UK (SmartCube class probability): + (≥4%)
CNC1COc2csc(C(F)(F)F)c2C1 (stereo not drawn) [Compound 153, N-methyl-5-(trifluoromethyl)-3,4-dihydro-2H-thieno[3,4-b]pyran-3-amine hydrochloride]	–	–	–	–	–	–	–	–	–	–	–	–	3 mg/kg	++++ (≥74%)	ND (^ <4%)	ND (^ <4%)	ND (^ <4%)	ND (^ <4%)	ND (^ <4%)	ND (^ <4%)	MS (SmartCube class probability): ND (^ <4%); PS (SmartCube class probability): ND (^ <4%); SH (SmartCube class probability): ND (^ <4%); UK (SmartCube class probability): ND (^ <4%)
CNC1CC=Cc2cscc2C1 (stereo not drawn) [Compound 168, N-methyl-5,6-dihydro-4H-cyclohepta[c]thiophen-5-amine hydrochloride]	–	–	–	–	–	–	–	–	–	–	–	–	3 mg/kg	ND (^ <4%)	ND (^ <4%)	ND (^ <4%)	+++ (≥49%)	ND (^ <4%)	ND (^ <4%)	ND (^ <4%)	MS (SmartCube class probability): ND (^ <4%); PS (SmartCube class probability): ND (^ <4%); SH (SmartCube class probability): ND (^ <4%); UK (SmartCube class probability): ND (^ <4%)
CNC1CCc2sc(C(F)(F)F)cc2C1 (stereo not drawn) [Compound 173, N-methyl-2-(trifluoromethyl)-4,5,6,7-tetrahydrobenzothiophen-5-amine hydrochloride]	–	–	–	–	–	–	–	–	–	–	–	–	> 3 mg/kg	ND (^ <4%)	ND (^ <4%)	ND (^ <4%)	ND (^ <4%)	ND (^ <4%)	ND (^ <4%)	ND (^ <4%)	MS (SmartCube class probability): ND (^ <4%); PS (SmartCube class probability): ND (^ <4%); SH (SmartCube class probability): ND (^ <4%); UK (SmartCube class probability): ++ (≥24%)
